Assays:
Format in all cases: biochemical
FAK = target: T1, FAK (Homo sapiens, UniProt Q05397); assay: FAK kinase assay (autophosphorylation), 384-well flashplate; settings: enzymatic; 1 μM ATP; read-out: IC50 (enzymatic), FAK inhibition
T1 construct: 2 nM FAK, 400 nM biotinylated substrate
Method: The focal adhesion kinase (FAK) assay is carried out either as a 384-well flashplate assay (for example for Topcount measurements) or as a 384-well image flashplate assay (for LEADseeker measurements). […] The reaction is stopped using 25 μl of 200 mM EDTA. After 30 min at 30° C., the liquid is removed, and each well is washed three times with 100 μl of 0.9% sodium chloride solution. Non-specific reaction is determined in the presence of 1 μM EMD 1076893/0(PF-562271). The radioactivity is measured using Topcount (in the case of the use of flashplates) or using LEADseeker (in the case of the use of image flashplates).

PDK1 = target: T2, PDK1 (Homo sapiens, UniProt O15530); assay: Test for the inhibition of PDK1, 384-well flashplate; settings: enzymatic; 4 μM ATP
T2 construct: the PDK1 sample His6-PDK1(Δ1-50)(3.4 nM)
T2 sequence (O15530 51-556): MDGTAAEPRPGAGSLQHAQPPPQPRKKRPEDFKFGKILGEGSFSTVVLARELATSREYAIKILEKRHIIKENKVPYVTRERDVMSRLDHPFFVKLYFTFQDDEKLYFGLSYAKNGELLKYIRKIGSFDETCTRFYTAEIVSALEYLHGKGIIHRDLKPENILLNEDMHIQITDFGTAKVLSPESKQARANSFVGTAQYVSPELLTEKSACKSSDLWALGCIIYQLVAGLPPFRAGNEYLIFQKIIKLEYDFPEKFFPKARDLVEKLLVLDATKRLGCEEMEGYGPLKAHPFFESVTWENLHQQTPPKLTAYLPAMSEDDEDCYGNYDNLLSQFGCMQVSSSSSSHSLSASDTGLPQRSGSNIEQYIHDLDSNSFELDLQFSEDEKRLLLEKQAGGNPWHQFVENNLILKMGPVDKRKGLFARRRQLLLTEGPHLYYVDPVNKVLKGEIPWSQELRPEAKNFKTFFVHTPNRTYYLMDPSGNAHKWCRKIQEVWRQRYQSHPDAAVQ
Method: The experimental batches are carried out in a flashplate system with 384 wells/microtitration plate.
In each case, the PDK1 sample His6-PDK1(Δ1-50)(3.4 nM) (“His6” disclosed as SEQ ID NO: 4), the PDK1 substrate biotin-bA-bA-[…] (SEQ ID NO: 1) (400 nM), 4 μM ATP (with 0.2 μCi of 33P-ATP/well) and the test substance in 50 μl of conventional experimental solution per well are incubated at 30° C. for 60 min. The test substances are employed in corresponding concentrations (if desired in a dilution series). The control is carried out without test substance. The reaction is stopped using standard methods and washed. The activity of the kinase is measured via the incorporated radioactivity in top count. In order to determine the non-specific kinase reaction (blank value), the experimental batches are carried out in the presence of 100 nM staurosporine.
The radioactivity (decompositions per minute) of the blank value (no use of test substance in the presence of staurosporine) is subtracted from all other radioactivity values. The controls (kinase activity without test substance) are set equal to 100 percent and all other radioactivity values (after subtracting the blank value) are expressed set in relation thereto (for example in % of the control).

IKKε = target: T3, IKKε (Homo sapiens, UniProt Q14164); assay: IKKε kinase test (IKKepsilon), 384-well flashplate; settings: enzymatic; 10 μM ATP; read-out: IKKe IC50 (enzymatic)
T3 construct: 1 nM IKKε, 800 nM biotinylated IκBα(19-42) peptide
T3 sequence (Q14164 1-716): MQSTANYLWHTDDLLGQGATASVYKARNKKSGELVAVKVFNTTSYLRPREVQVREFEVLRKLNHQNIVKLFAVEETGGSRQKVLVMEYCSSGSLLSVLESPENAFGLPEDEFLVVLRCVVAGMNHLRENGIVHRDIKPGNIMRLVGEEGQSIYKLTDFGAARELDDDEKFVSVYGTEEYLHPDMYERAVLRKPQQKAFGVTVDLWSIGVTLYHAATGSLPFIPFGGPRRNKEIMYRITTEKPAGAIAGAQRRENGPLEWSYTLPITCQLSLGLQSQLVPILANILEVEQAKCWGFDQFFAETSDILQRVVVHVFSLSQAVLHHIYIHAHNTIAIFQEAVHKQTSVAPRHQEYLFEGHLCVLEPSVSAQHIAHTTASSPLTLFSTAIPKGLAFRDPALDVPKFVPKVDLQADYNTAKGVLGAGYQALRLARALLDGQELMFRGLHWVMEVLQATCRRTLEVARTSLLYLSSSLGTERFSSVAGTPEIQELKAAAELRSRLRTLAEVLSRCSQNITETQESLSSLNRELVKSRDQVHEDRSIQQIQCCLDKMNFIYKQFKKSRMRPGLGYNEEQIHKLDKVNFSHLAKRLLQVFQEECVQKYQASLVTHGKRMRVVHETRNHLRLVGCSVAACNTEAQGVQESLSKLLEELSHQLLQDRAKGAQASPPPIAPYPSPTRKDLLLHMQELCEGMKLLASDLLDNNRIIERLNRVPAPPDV
Method: The kinase assay is performed as 384-well flashplate assay. 1 nM IKKε, 800 nM biotinylated IκBα(19-42) peptide (biotin-C6-C6-[…] (SEQ ID NO: 2)) and 10 μM ATP (with 0.3 μCi of 33P-ATP/well) are incubated in a total volume of 50 μl (10 mM MOPS, 10 mM magnesium acetate, 0.1 mM EGTA, 1 mM dithiothreitol, 0.02% of Brij, 0.1% of BSA, 0.1% of BioStab, pH 7.5) with or without test substance at 30° C. for 120 min. The reaction is stopped using 25 μl of 200 mM EDTA solution, filtered off with suction after 30 min at room temperature, and the wells are 25 washed 3 times with 100 μl of 0.9% NaCl solution. The non-specific proportion of the kinase reaction (blank) is determined using 3 μM EMD 1126352 (BX-795). Radioactivity is measured in the Topcount. IC50 values are calculated using RS1.

[1] = target: T4, TANK binding kinase (TBK1) (Homo sapiens, UniProt Q9UHD2); assay: TBK1 kinase test, 384-well flashplate; settings: enzymatic; 10 μM ATP
T4 sequence (Q9UHD2 1-729): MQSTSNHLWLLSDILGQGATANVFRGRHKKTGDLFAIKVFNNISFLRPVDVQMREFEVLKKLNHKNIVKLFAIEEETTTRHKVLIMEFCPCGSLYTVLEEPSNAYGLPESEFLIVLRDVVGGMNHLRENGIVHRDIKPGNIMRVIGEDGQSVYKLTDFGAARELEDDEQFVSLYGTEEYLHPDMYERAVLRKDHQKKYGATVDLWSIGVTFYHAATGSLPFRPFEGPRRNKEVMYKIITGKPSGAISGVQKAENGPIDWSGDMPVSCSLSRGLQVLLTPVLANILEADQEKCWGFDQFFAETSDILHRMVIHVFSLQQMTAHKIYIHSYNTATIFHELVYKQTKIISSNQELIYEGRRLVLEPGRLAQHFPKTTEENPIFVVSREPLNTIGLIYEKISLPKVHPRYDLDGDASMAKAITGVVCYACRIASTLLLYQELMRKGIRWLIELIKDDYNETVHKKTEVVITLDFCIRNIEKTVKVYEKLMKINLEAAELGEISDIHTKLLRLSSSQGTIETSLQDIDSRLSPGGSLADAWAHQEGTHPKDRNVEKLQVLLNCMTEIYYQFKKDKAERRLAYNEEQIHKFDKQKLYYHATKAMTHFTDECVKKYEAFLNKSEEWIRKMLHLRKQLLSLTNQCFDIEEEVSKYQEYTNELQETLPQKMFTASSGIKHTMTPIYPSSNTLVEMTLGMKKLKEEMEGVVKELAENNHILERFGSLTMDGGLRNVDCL
Method: The kinase assay is performed as 384-well flashplate assay. 0.6 nM TANK binding kinase (TBK1), 800 nM biotinylated MELK-derived peptide (biotin-Ah-Ah-[…] (SEQ ID NO: 3)) and 10 μM ATP (with 0.25 μCi of 33P-ATP/well) are incubated in a total volume of 50 μl (10 mM MOPS, 10 mM magnesium acetate, 0.1 mM EGTA, 1 mM DTT, 0.02% of Brij35, 0.1% of BSA, pH 7.5) with or without test substance at 30° C. for 120 min. The reaction is stopped using 25 μl of 200 mM EDTA solution, filtered off with suction after 30 min at room temperature, and the wells are washed 3 times with 100 μl of 0.9% NaCl solution. The non-specific proportion of the kinase reaction (blank) is determined using 100 nM staurosporine. Radioactivity is measured in the Topcount. IC50 values are calculated using RS1.

T1 sequence (Q05397 whole entry): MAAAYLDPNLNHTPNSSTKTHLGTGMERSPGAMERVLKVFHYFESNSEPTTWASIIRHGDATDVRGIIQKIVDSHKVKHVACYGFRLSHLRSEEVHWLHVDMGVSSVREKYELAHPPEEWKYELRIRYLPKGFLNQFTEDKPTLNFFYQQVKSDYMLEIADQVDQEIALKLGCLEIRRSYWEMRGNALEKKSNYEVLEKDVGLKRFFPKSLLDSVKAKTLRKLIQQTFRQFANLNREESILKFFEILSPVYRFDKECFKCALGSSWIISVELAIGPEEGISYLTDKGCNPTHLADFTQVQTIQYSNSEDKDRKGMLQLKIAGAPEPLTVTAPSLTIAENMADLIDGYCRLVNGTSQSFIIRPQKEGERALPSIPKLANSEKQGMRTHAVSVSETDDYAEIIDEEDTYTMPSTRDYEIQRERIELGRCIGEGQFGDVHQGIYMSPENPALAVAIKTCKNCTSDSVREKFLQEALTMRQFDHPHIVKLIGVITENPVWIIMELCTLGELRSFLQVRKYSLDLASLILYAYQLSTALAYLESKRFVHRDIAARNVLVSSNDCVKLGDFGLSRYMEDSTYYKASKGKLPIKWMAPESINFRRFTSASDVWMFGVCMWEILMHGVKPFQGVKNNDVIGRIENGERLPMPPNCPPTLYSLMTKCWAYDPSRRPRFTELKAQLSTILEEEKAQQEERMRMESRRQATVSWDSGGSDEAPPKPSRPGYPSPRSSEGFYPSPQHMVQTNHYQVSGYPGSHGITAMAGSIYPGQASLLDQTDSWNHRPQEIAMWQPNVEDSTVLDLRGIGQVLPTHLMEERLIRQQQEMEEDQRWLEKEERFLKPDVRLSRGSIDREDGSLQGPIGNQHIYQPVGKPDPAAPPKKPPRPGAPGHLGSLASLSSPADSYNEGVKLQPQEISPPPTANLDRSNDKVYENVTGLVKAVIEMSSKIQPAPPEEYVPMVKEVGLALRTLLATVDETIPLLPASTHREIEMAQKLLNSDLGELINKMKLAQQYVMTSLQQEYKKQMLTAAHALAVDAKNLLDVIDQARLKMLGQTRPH

`CN(c1ncccc1-c1nc2ncnc(Nc3cnn(C)c3)c2[nH]1)S(C)(=O)=O` [A6, N-Methyl-N-{3-[6-(1-methyl-1H-pyrazol-4-yl-amino)-7H-purin-8-yl]pyridin-2-yl}methanesulfonamide] was tested, and the IC50 (FAK) was 3 to 50 µM.
`COc1cc(N2CCOCC2)ccc1Nc1ncnc2nc(-c3cccnc3N(C)S(C)(=O)=O)[nH]c12` [A4, N-{3-[6-(2-Methoxy-4-morpholin-4-ylphenyl-amino)-7H-purin-8-yl]pyridin-2-yl}-N-methyl-methanesulfonamide] was tested, and the IC50 (FAK) was 3 to 50 µM.
With `Cn1cc(-c2c(C(F)(F)F)cnc3[nH]c(-c4cccc(N5CCOCC5)c4)cc23)cn1` [A104, 4-(1-Methyl-1H-pyrazol-4-yl)-2-(3-morpholin-4-ylphenyl)-5-trifluoromethyl-1H-pyrrolo[2,3-b]-pyridine] the IC50 (PDK1) was 0.3 to 3 µM.
Work on `Cn1cc(-c2c(C(F)(F)F)cnc3[nH]c(-c4ccc(F)cc4)cc23)cn1` [A105, 2-(4-Fluorophenyl)-4-(1-methyl-1H-pyrazol-4-yl)-5-trifluoromethyl-1H-pyrrolo[2,3-b]pyridine] yielded an IC50 (PDK1) of 0.3 to 3 µM.
In the case of `FC(F)(F)c1cnc2[nH]c(-c3ccc(N4CCOCC4)cc3)cc2c1-c1cn[nH]c1` [A102, 2-(4-Morpholin-4-ylphenyl)-4-(1H-pyrazol-4-yl)-5-trifluoromethyl-1H-pyrrolo[2,3-b]pyridine], the IC50 (PDK1) is reported as 3 to 50 µM.
`CN(c1ncccc1-c1cc2ccnc(Nc3ccc4c(c3)CCC(=O)N4)c2[nH]1)S(C)(=O)=O` [A3, N-Methyl-N-{3-[7-(2-oxo-1,2,3,4-tetrahydroquinolin-6-ylamino)-1H-pyrrolo[2,3-c]pyridin-2-yl]pyridin-2-yl}methanesulfonamide] showed an IC50 (FAK) of 3 to 50 µM.
Molecule `CN(c1ncccc1-c1nc2ccnc(Nc3ccc4c(c3)CCC(=O)N4)c2[nH]1)S(C)(=O)=O` [A7, N-Methyl-N-{3-[4-(2-oxo-1,2,3,4-tetra-hydroquinolin-6-ylamino)-3H-imidazo[4,5-c]-pyridin-2-yl]pyridin-2-yl}methanesulfonamide] has an IC50 (FAK) of 3 to 50 µM.
For `CN(c1ncccc1-c1cc2ccnc(Nc3ccc4c(c3)CC(=O)N4)c2[nH]1)S(C)(=O)=O` [A1, N-Methyl-N-{3-[7-(2-oxo-2,3-dihydro-1H-indol-5-ylamino)-1H-pyrrolo-[2,3-c]pyridin-2-yl]-pyridin-2-yl}methanesulfonamide], the IC50 (FAK) was 3 to 50 µM.
For `Cn1cc(-c2c(C(F)(F)F)cnc3[nH]c(-c4cccc(C(=O)N5CCOCC5)c4)cc23)cn1` [A95, {3-[4-(1-Methyl-1H-pyrazol-4-yl)-5-trifluoro-methyl-1H-pyrrolo[2,3-b]pyridin-2-yl]phenyl}-morpholin-4-ylmethanone], the IC50 (PDK1) was 0.3 to 3 µM, the IC50 (IKKε) was 3 to 50 µM and the IC50 [1] was 0.3 to 3 µM.
`Nc1ccc(-c2c(C(F)(F)F)cnc3[nH]c(-c4ccc(N5CCOCC5)cc4)cc23)cc1` [A100, 4-[2-(4-Morpholin-4-ylphenyl)-5-trifluoromethyl-1H-pyrrolo[2,3-b]pyridin-4-yl]phenylamine] showed an IC50 [1] of 0.3 to 3 µM.
Molecule `Cn1cc(-c2c(C(F)(F)F)cnc3[nH]c(-c4ccc(C(=O)N5CCOCC5)cc4)cc23)cn1` [A96, {4-[4-(1-Methyl-1H-pyrazol-4-yl)-5-trifluoro-methyl-1H-pyrrolo[2,3-b]pyridin-2-yl]phenyl}-morpholin-4-ylmethanone] has an IC50 (PDK1) of less than 0.3 µM, an IC50 (IKKε) of 0.3 to 3 µM and an IC50 [1] of less than 0.3 µM.
`O=c1ccc(-c2c(C(F)(F)F)cnc3[nH]c(-c4ccc(N5CCOCC5)cc4)cc23)c[nH]1` [A97, 5-[2-(4-Morpholin-4-ylphenyl)-5-trifluoromethyl-1H-pyrrolo[2,3-b]pyridin-4-yl]-1H-pyridin-2-one] showed an IC50 (PDK1) of 0.3 to 3 µM, an IC50 (IKKε) of 0.3 to 3 µM and an IC50 [1] of 0.3 to 3 µM.
Molecule `CN(c1ncccc1-c1cc2ccnc(Nc3ccc(N4CCOCC4)cc3)c2[nH]1)S(C)(=O)=O` [A2, N-Methyl-N-{3-[7-(4-morpholin-4-ylphenyl-amino)-1H-pyrrolo[2,3-c]pyridin-2-yl]pyridin-2-yl}methanesulfonamide] has an IC50 (FAK) of 3 to 50 µM.
In the case of `CN(c1ncccc1-c1nc2ncnc(Nc3ccc(N4CCOCC4)cc3)c2[nH]1)S(C)(=O)=O` [A5, N-Methyl-N-{3-[6-(4-morpholin-4-ylphenyl-amino)-7H-purin-8-yl]pyridin-2-yl}methanesulfonamide], the IC50 (FAK) is reported as 3 to 50 µM.

From patent US9249140B2, “Bicyclic heteroaromatic compounds” (MERCK PATENT GMBH, priority 2011, dated 2016)
